According to ChEMBL document CHEMBL1137734, “2D- and 3D-QSAR of tocainide and mexiletine analogues acting as Na(v)1.4 channel blockers” (Eur J Med Chem, 2009):

Molecular target: Sodium channel protein type 4 subunit alpha (Homo sapiens, UniProt P35499)
Test: Inhibition of Nav1.4 ion channel assessed as reduction in cumulative sodium current

Chain of Sodium channel protein type 4 subunit alpha (P35499 whole entry): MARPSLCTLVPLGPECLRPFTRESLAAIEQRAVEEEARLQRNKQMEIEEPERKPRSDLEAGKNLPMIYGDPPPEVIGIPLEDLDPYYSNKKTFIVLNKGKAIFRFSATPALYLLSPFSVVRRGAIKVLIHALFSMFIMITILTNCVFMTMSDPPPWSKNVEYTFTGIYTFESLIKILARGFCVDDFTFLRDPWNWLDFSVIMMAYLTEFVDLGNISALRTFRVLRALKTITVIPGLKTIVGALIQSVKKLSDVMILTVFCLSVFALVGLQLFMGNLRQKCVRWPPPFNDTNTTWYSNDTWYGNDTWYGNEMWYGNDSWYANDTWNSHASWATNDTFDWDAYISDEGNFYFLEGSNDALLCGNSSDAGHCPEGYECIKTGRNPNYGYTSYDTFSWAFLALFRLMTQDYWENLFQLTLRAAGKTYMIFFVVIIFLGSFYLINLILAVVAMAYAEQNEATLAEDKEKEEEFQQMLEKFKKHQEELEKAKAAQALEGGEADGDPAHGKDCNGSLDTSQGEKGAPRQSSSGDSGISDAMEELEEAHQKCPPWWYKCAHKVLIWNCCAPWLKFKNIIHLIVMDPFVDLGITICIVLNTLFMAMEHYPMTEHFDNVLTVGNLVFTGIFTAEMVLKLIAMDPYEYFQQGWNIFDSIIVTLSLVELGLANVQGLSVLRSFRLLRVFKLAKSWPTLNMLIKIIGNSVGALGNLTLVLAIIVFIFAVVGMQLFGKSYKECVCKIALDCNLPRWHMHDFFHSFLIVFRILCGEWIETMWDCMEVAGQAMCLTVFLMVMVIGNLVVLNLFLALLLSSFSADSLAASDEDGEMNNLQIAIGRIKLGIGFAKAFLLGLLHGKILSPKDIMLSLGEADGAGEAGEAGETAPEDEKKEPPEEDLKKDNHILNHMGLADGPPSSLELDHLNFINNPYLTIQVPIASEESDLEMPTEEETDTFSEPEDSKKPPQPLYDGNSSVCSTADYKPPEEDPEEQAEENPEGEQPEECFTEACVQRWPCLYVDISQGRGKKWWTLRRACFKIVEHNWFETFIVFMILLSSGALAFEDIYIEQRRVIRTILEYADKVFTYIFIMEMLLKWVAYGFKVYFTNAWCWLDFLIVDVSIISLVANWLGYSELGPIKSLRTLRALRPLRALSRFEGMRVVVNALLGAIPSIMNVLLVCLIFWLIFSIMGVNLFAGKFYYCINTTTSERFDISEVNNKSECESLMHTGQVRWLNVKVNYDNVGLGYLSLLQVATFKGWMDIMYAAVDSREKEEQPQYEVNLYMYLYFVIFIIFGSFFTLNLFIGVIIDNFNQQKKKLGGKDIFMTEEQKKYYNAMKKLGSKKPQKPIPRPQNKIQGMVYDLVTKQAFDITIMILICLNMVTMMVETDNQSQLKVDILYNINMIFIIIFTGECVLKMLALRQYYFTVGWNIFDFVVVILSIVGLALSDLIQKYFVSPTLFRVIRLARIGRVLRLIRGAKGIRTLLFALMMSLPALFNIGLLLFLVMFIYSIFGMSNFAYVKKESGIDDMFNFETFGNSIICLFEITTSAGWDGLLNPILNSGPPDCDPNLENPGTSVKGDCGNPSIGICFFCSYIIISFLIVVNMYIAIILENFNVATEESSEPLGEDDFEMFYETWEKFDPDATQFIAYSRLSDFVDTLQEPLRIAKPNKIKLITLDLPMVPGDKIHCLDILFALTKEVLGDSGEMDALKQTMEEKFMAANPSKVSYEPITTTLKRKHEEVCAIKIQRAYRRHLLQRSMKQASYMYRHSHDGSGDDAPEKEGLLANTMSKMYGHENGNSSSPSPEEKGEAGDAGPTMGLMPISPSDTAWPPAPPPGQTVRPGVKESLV

Row | EC50 | SMILES
1 | 7.94 µM | Cc1cc(Cl)cc(C)c1OC[C@@H](N)c1ccccc1
2 | 3.98 µM | N[C@@H](COc1ccccc1)c1ccccc1
3 | 3.02 µM | N[C@H](COc1ccc(Cl)cc1)c1ccccc1
4 | 3.02 µM | Cc1cccc(C)c1OC[C@H](N)c1ccccc1
5 | 3.02 µM | Cc1cccc(C)c1OC[C@@H](N)c1ccccc1
6 | 19.5 µM | Cc1cc(Cl)cc(C)c1OC[C@H](N)c1ccccc1
7 | 15.1 µM | Cc1cc(Cl)ccc1OC[C@H](N)c1ccccc1
8 | 15.8 µM | N[C@H](COc1ccccc1)c1ccccc1
9 | 1.91 µM | Cc1cccc(C)c1SC[C@@H](C)CN
10 | 5.75 µM | Cc1cccc(C)c1OC[C@H](N)C(C)C
11 | 2.69 µM | Cc1cccc(C)c1SC[C@H](C)CN
12 | 4.68 µM | Cc1cccc(C)c1SC[C@@H](N)c1ccccc1
13 | 23.4 µM | Cc1cccc(C)c1OC[C@H](C)CN
14 | 11.2 µM | Cc1cccc(C)c1NC(=O)[C@@H](C)NCc1ccccc1
15 | 9.12 µM | Cc1cccc(C)c1NC(=O)[C@H](C)NCc1ccccc1
16 | 40.7 µM | Cc1cccc(C)c1NC(=O)[C@@H]1CCCN1
17 | 67.6 µM | Cc1cccc(C)c1NC(=O)[C@H]1CCCN1C
18 | 28.2 µM | Cc1cccc(C)c1NC(=O)[C@@H]1CCCN1C
19 | 7.08 µM | Cc1cccc(C)c1SC[C@H](N)c1ccccc1

Row | EC50 | SMILES
20 | 501 µM | Cc1cccc(C)c1N(C)C(=O)[C@H]1CCCN1C
21 | 219 µM | Cc1cccc(C)c1N(C)C(=O)[C@H]1CCCN1
22 | 67.6 µM | Cc1cccc(C)c1N(C)C(=O)[C@@H]1CCCN1
23 | 200 µM | Cc1cccc(C)c1N(C)C(=O)[C@@H]1CCCN1C
24 | 10 µM | Cc1cccc(C)c1NC(=O)[C@@H]1CCCN1Cc1ccccc1
25 | 1.7 µM | Cc1cccc(C)c1NC(=O)[C@@H]1CCN(Cc2ccccc2)C1
26 | 17.4 µM | Cc1cccc(C)c1OC[C@@H](C)CN
27 | 3.72 µM | Cc1cc(Cl)cc(C)c1OC[C@H](C)CN
28 | 22.9 µM | Cc1cc(Cl)ccc1OC[C@@H](N)Cc1ccccc1
29 | 2.29 µM | Cc1cccc(C)c1NC(=O)[C@H]1CCN(Cc2ccccc2)C1
30 | 2.4 µM | Cc1cccc(C)c1OC[C@H](N)Cc1ccccc1
31 | 2.88 µM | Cc1cc(Cl)cc(C)c1OC[C@@H](C)CN
32 | 12 µM | Cc1cccc(C)c1NC(=O)[C@H]1CCCN1
33 | 31.6 µM | Cc1cccc(C)c1NC(=O)[C@H]1CCCN1Cc1ccccc1
34 | 5.75 µM | Cc1cccc(C)c1OC[C@@H](N)C(C)C (racemic)
35 | 22.9 µM | Cc1cccc(C)c1OC[C@@H](C)N [(R)-MEXILETINE]
36 | 275 µM | Cc1cccc(C)c1NC(=O)[C@@H](C)N [(R)-TOCAINIDE]
37 | 26.9 µM | Cc1cccc(C)c1OC[C@H](C)N [(S)-MEXILETINE]
38 | 224 µM | Cc1cccc(C)c1NC(=O)[C@H](C)N [S-TOCAINIDE]

Row | SMILES | EC50
39 | Cc1cccc(C)c1N1CN2CCC[C@@H]2C1=O | 501 µM
